Consider 9 molecules from US5218114A, “Cholecystokinin antagonists” (Merck & Co., Inc., priority 1992, dated 1993).

In experiment [1] the target is T1, CCK receptor (brain, cortex) (Cavia porcellus, UniProt H0VZC5).
T1 construct: the cortex was removed and homogenized in 25 mL ice-cold 0.32M sucrose; from tissue; host or cells: guinea pig brain cortex, P2 membranes
T1 sequence (H0VZC5 1-426): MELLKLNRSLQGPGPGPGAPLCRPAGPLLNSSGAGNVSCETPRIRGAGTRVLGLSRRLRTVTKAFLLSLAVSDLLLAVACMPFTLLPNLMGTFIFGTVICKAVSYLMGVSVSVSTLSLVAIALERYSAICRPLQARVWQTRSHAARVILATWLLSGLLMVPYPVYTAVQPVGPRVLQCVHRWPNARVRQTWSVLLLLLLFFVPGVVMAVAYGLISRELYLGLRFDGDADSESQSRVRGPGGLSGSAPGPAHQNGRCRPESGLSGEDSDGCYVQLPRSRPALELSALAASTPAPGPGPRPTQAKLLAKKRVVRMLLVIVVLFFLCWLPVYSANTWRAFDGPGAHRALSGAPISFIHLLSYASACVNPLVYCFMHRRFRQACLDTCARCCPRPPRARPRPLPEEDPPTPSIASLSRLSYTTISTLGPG
Briefly: CCK Receptor Binding (Brain). On the set-up: species or system guinea pig (male Hartley). How it is done: 2. CCK Receptor Binding (Brain)
CCK-8 sulphated was radiolabelled and the binding was performed according to the description for the pancreas method with minor modifications.
Male Hartley guinea pigs (300-500 g) were sacrificed by decapitation and the cortex was removed and homogenized in 25 mL ice-cold 0.32M sucrose. The homogenates were centrifuged at 1000 g for 10 minutes and the resulting supernatant was recentrifuged at 20,000 g for 20 minutes. […] All assays were run in duplicate. The reaction mixtures were incubated at 25° C. for 2 hours and then the reaction was terminated on Whatman GF/C filters by rapid filtration (Brandell 24 well cell Harvester) with 3×5 ml washes of cold 100 mM NaCl. The radioactivity on the filters was then counted with a LKB gamma counter.
(§1) Drug displacement studies were performed with at least 10 concentrations of compounds of formula 1 and the IC50 values were determined by regression analysis.

The target of another experiment is T2, CCK receptor (pancreas) (Rattus norvegicus, UniProt P30551).
T2 construct: The whole pancreas was dissected free of fat tissue and was homogenized; from tissue; host or cells: rat whole pancreas, homogenate membranes
T2 sequence (P30551 1-444): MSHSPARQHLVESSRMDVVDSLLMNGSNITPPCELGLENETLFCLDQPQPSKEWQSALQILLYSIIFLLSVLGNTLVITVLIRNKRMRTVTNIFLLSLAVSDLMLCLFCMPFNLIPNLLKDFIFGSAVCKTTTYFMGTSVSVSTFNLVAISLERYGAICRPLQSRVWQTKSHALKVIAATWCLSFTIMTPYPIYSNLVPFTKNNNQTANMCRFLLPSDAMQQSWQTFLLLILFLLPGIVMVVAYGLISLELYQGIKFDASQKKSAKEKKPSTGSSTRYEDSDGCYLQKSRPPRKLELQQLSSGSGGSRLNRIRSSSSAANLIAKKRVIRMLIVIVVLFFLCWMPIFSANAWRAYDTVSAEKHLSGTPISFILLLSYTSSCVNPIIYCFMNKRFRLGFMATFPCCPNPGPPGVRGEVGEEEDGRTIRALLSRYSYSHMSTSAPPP
Briefly: CCK Receptor Binding (Pancreas). Details: species or system rat (male Sprague-Dawley). How it is done: 1. CCK Receptor Binding (Pancreas)
CCK-8 sulphated was radiolabelled with ^125 I-Bolton Hunter reagent (2000 Ci/mmole). Receptor binding was performed according to Chang and Lotti (Proc. Natl. Acad. Sci. 83, 4923-4926, 1986) with minor modifications.
Male Sprague-Dawley rats (150-200 g) were sacrificed by decapitation. The whole pancreas was dissected free of fat tissue and was homogenized in 25 volumes of ice-cold 10 mM Hepes buffer with 0.1% soya bean trypsin inhibitor (pH 7.4 at 25° C.) with a Kinematica Polytron. The homogenates were centrifuged at 47,800 g for 10 min. Pellets were resuspended in 10 volumes of binding assay buffer (20 mM Hepes, 1 mM EGTA, 5 mM MgCl2, 150 mM NaCl, bacitracin 0.25 mg/ml, soya bean trypsin inhibitor 0.1 mg/ml, and bovine serum albumin 2 mg/ml, pH 6.5 at 25° C.) using a teflon homogenizer, 15 strokes at 500 rpm. The homogenate was further diluted in binding assay buffer to give a final concentration of 0.5 mg original wet weight/1 ml buffer. […] All assays were run in duplicate. The reaction mixtures were incubated at 25° C. for 2 hours and the reaction terminated by rapid filtration (Brandell 24 well cell harvester) over Whatman GF/C filters, washing 3×4 mls with ice-cold 100 mM NaCl. The radioactivity on the filters was counted with a LKB gamma counter.
as §1

A further experiment relates to CCK receptor. As to conditions: literature; cited from earlier work.
The next experiment relates to CCK-B receptors. The following applies: Bock et al., J. Med. Chem., 32, 13-16 (1989); cited from earlier work.
In another experiment the test system is gastrin. The following applies: J. Martinez, J. Med. Chem. 27, 1597 (1984); cited from earlier work.
Setting [2] is: 125I-CCK-8 50 pM, guinea pig cortex, 25° C., 2 hours, read-out: CCK RECEPTOR BINDING RESULTS IC50, 125I-CCK Brain.
[3] abbreviates: 125I-CCK-8 50 pM, rat pancreas, 25° C., 2 hours, read-out: CCK RECEPTOR BINDING RESULTS IC50, 125I-CCK Pancreas.

pIC50: −log10 of the molar value. Read-outs that look alike come from different tables or passages of the source. Square brackets hold non-standard residues; d marks the D form. Peptide text beside a SMILES is read from it. * marks the point of attachment. sY = N[C@@H](Cc1ccc(OS(=O)(=O)O)cc1)C(=O)O; Cbz = O=C(OCc1ccccc1)*

The term pIC50 denotes −log10 of the IC50, conventionally taken in molar units. As for `O=C(Nc1ccc(Cl)cc1)NC1N=C(c2ccccc2)c2ccccc2N(CC(Cl)CO)C1=O` (centres unmarked) [Example 4, N-{1,3-Dihydro-1-[3-((hydroxy)-2-chloro)propyl]-2-oxo-5-phenyl-1H-1,4-benzodiazepin-3-yl}-N'-{[4-chlorophenyl]-urea}], the pIC50 was 7.21 in experiment [1] (setting [2]) and under 5.52 on CCK receptor (pancreas) (setting [3]).

Take `O=C(Nc1ccc(Cl)cc1)NC1N=C(c2ccccc2)c2ccccc2N(CC(O)CO)C1=O` (centres unmarked) [Example 5, N-{1,3-Dihydro-1-[2,3-(dihydroxy)propyl]-2-oxo-5-phenyl-1H-1,4-benzodiazepin-3-yl}-N'-{[4-chlorophenyl]-urea}]: the figures for the pIC50 (in experiment [1]; at CCK receptor (pancreas) (setting [3])) were 6.93 and under 5.52, respectively.

Consider `CCCC(=O)Nc1nc2c(ncn2[C@@H]2O[C@@H]3COP(=O)(O)O[C@H]3[C@H]2OC(=O)CCC)c(=O)[nH]1` [dibutyryl cyclic GMP], for which, in the experiment on CCK receptor, the “CCK-receptor antagonist potency / agonism” value is “the most potent”.

As for `CN(C)CC(O)CN1C(=O)C(NC(=O)Nc2ccc(Cl)cc2)N=C(c2ccccc2)c2ccccc21` (centres unmarked) [Example 3, N-{1,3-Dihydro-1-[3-((dimethylamino)-2-hydroxy)propyl]-2-oxo-5-phenyl-1H-1,4-benzodiazepin-3-yl}-N'-{[4-chlorophenyl]-urea}], the pIC50 in experiment [1] (setting [2]) was 6.37; at CCK receptor (pancreas) it was under 5.52.

For `O=C(Nc1ccc(Cl)cc1)NC1N=C(c2ccccc2)c2ccccc2N(CC(O)CN2CCCC2)C1=O` (centres unmarked) [Example 2, N-{1,3-Dihydro-1-[3-((pyrrolidinyl)-2-hydroxy)propyl]-2-oxo-5-phenyl-1H-1,4-benzodiazepin-3-yl}-N'-{[4-chlorophenyl]-urea}], the pIC50 was 6.52 in experiment [1] (setting [2]) and under 5.52 at CCK receptor (pancreas).

For the molecule `Cc1cccc(NC(=O)N[C@@H]2N=C(c3ccccc3)c3ccccc3N(C)C2=O)c1` [(R)-N-(2,3-dihydro-1-methyl-2-oxo-5-phenyl-1H-1,4-benzodiazepin-3-yl)-N^1-(3-methylphenyl) urea], in the experiment on CCK-B receptors, the “antagonist of CCK-B receptors” value was “potent and selective antagonist of CCK-B receptors”.

Turning to `CCCN(CCC)C(=O)C(CCC(=O)O)NC(=O)c1ccccc1` (centres unmarked) [proglumide], the “in vitro gastrin antagonism” value in the experiment on gastrin was “very weak in vitro antagonists”.

In the case of `CSCC[C@H](NC(=O)[C@H](Cc1ccc(OS(=O)(=O)O)cc1)NC(=O)OCc1ccccc1)C(=O)NCC(=O)N[C@@H](Cc1c[nH]c2ccccc12)C(=O)N[C@@H](CCSC)C(=O)N[C@@H](CC(=O)O)C(N)=O` [Cbz--Tyr(SO3 H)--Met--Gly--Trp--Met--Asp--NH2] (Cbz-[sY]MGWMD-NH2), the “CCK-receptor antagonist potency / agonism” value in the experiment on CCK receptor was “partial agonist”.

On to `O=C(Nc1ccc(Cl)cc1)NC1N=C(c2ccccc2)c2ccccc2N(Cc2nnn[nH]2)C1=O` (centres unmarked) [Example 1, N-{1,3-Dihydro-1-[1H-tetrazol-5yl]methyl-2-oxo-5-phenyl-1H-1,4-benzodiazepin-3-yl}-N'-{[4-chlorophenyl]-urea}], for which the pIC50 in experiment [1] (setting [2]) is 6.31; at CCK receptor (pancreas), 5.67.
